From US11981740B2, “BAFF-R antibodies and uses thereof” (CITY OF HOPE, priority 2016, dated 2024)

Columns and labels:
[1] = tested on: JeKo-1-CD20-KO tumor cells; test: In vivo JeKo-1-CD20-KO xenograft; design: species or system NSG mice; settings: Day 20
Description: FIGS. 6A and 6B are images and FIG. 6C are graphs showing chimeric antibodies targeting human BAFF-R elicited in vivo therapeutic effects against drug resistant B-cell tumors. Bioluminescence images of mice challenged with luciferase-expressing tumors JeKo-1-CD20-KO cells (FIG. 6A) or ibrutinib-resistant Z-138 cells (FIG. 6B) followed by antibody treatments as in FIG. 4. Control group mice received PBS, NK cells alone, or rituximab on the same schedule. […] Tumor free rate and survival differences between experimental and all control groups were analyzed by log-rank test (**P<0.001). Data are representative of three independent experiments.
(§1) In vivo studies. For tumor models, stable, luciferase-expressing tumors lines were established for bioluminescent imaging in mouse models. Briefly, a luciferase gene was introduced into tumor lines by a lentivirus gene delivery system (pLenti7.3/V5-DEST Gateway Vector Kit, Life Technologies, Carlsbad, CA). The minimum lethal dose per mouse was determined for each tumor cell line by dose titration. Tumor cells were injected intravenously (IV) and mice were monitored by in vivo bioluminescence imaging for minimum tumor dose to ensure engraftment. Minimum lethal tumor doses were: 1×10^6 JeKo-1, 5×10^5 RS4; 11, 5×10^5 JeKo-1-CD20-KO, or 2.5×10^4 Z-138 cells. […]

[2] = tested on: RS4; 11 (acute lymphoblastic leukemia, ALL); test: In vivo RS4;11 ALL xenograft, bioluminescence imaging; settings: RS4;11 challenged NSG mice
Description: FIG. 4A is a schematic showing treatment schedule following Day 0 tumor challenge with minimum lethal dose of tumors. Treatments were given by IV tail vein injections. FIGS. 4B and 4C are images showing chimeric antibodies targeting human BAFF-R elicited in vivo therapeutic effects against B-cell tumors. Bioluminescence images of mice challenged with luciferase-expressing tumors: JeKo-1 (MCL) (FIG. 4B) or RS4; 11 (ALL) (FIG. 4C). Experimental groups received treatment of chimeric BAFF-R mAbs (C55 or C90, as indicated). Control group mice received PBS, NK cells alone, or rituximab on the same schedule. Data are representative of three independent experiments.
as §1

[3] = tested on: JeKo-1, Z138, and RS4 lines; test: ADCC chromium release of humanized C90-4 and C90-5, dose response; type: cell-based; settings: RS4 acute lymphoblastic lymphoma
Description: FIGS. 21A and 21B are graphs showing humanized antibodies C90-4 and C90-5 analyzed for their specific cytotoxicity of various lymphoma lines. For FIG. 21A, JeKo-1, Z138, and RS4 were subjected to a chromium release assay with humanized antibodies C90-4 and C90-5. Antibodies were administered to the cell lines at concentrations between 0 to 5 μg/mL and incubated for 6 hours with NK cells at an E:T ratio of 20:1. The cell supernatants were analyzed for their chromium content. For FIG. 21B, LY-10, MEC-2, RL, and Raji lymphoma lines were subjected to a chromium release assay with humanized antibodies C90-4 and C90-5. Antibodies were administered to the cell lines at 5 μg/mL and incubated for 6 hours with NK cells at an E:T ratio of 20:1. The cell supernatants were analyzed for their chromium content.
The two variants were further assessed in their ability to initiate ADCC. The antibodies were administered in varying concentration to JeKo-1, Z138, and RS4 lines after a period of chromium uptake. The cells and antibodies were incubated with effector NK cells. The supernatant was analyzed 6 hours post treatment (FIG. 21A).

JeKo-1-CD20-KO clone 25 = test: ADCC on rituximab-resistant JeKo-1-CD20-KO; type: cell-based; settings: E:T=20:1
Description: FIGS. 5A, 5B and 5C are images or graphs showing chimeric BAFF-R antibodies induce ADCC on drug resistant lymphoma models in vitro. FIG. 5A is a scatterplot of FACS analysis showing CD20 binding on JeKo-1 cells following CRISPR/HDR knock-out of CD20 gene. CD20 expression on selected CD20−/−clone #25 compared to WT JeKo-1. ADCC effects measured by chromium-51 release after incubation with C55, C90, or rituximab and effectors NK cells (E:T=20:1). Percentage of cell specific lysis of target cells: rituximab-resistant JeKo-1-CD20-KO (FIG. 5B) and ibrutinib-resistant Z-138 and SP49-IR (FIG. 5C). All data are representative of two or more identical experiments. Data are shown as the mean±s.d. of triplicate samples. *P<0.05 compared with NK cells by two-tailed Student's t-test.
Cytotoxicity assays. Target cells (L cells, human tumor lines, primary patient samples) were labeled with chromium-51 (51Cr, Perkin Elmer, Waltham, MA) for a 51Cr release assay. Briefly, antibodies and effectors (NK cells or complement serum standard [Sigma Aldrich, St. Louis, MO]), were added to labeled target cells and incubated up to 18 hours. NK cells were enriched from PBMC (NK cell enrichment kit, Stemcell Technologies, Vancouver, Canada). 51Cr released into supernatant was detected with a Wizard Automatic Gamma Counter (Perkin Elmer).
Generation of JeKo-1-CD20-KO. […]

SP49 cells = test: Ibrutinib sensitivity of parental SP49 cells; type: cell-based
Description: (§2) Animals, cell lines, and primary human tumor samples. BALB/c mice for antibody development and NOD scid gamma (NSG) breeding pairs were purchased from The Jackson Laboratory (Bar Harbor, ME). The NSG breeding colony was maintained by the Animal Resource Center at City of Hope. Mice were housed in a pathogen-free animal facility according to institutional guidelines. All animal studies were approved by the Institutional Animal Care and Use Committee (IACUC: 15020). JeKo-1, SU-DHL-6, Raji, U266 and RL were purchased from ATCC (Manassas, VA). Z-138 line was provided by Dr. Michael Wang (MD Anderson Cancer Center). Ibrutinib-resistant SP49-IR line was developed and provided by Dr. Jianguo Tao (University of South Florida). Ibrutinib-resistant SP49 cell lines (SP49-IR) were established by treating cells with escalating doses of ibrutinib. IC50 was 5 nM for parental SP49 compared to >100 nM for SP49-IR. At 100 nM ibrutinib ˜5% of SP49 cells were viable compared with >90% of SP49-IR cells. Human NK-92 176V cells were obtained from Conkwest Inc. (San Diego, CA). For human blood and tumor samples, non-cultured, primary human lymphomas were obtained as cryopreserved, viable single cell suspensions in 10% DMSO from the Lymphoma Satellite Tissue Bank at MD Anderson Cancer Center under an Institutional Review Board approved protocol (IRB: 2005-0656). […]

SP49-IR cells = test: Ibrutinib sensitivity of ibrutinib-resistant SP49-IR cells; type: cell-based
Description: as §2

Row | IC50 (SP49-IR cells) | Molecule | tumor burden by bioluminescent imaging [1] | tumor growth [2] | ADCC activity [3] | sensitivity to antibody-mediated cytotoxicity (JeKo-1-CD20-KO clone 25) | viability at 0.1 µM (SP49 cells; At 100 nM ibrutinib, SP49, read-out: viable cells) | IC50 (SP49 cells; parental SP49) | viability at 0.1 µM (SP49-IR cells; At 100 nM ibrutinib, read-out: viable cells)
1 | – | rituximab [reference compound] | substantial tumor burden | no inhibition | not active | insensitive | – | – | –
2 | > 100 nM | C=CC(=O)N1CCC[C@@H](n2nc(-c3ccc(Oc4ccccc4)cc3)c3c(N)ncnc32)C1 [ibrutinib] | – | – | – | – | ~5% | 5 nM | > 90%
